Like-named read-outs stand apart in the source and are kept apart here.
Columns and labels:
[1] = tested on: AMO-1 human multiple myeloma tumor cell line; assay: AMO-1 cell viability assay (CellTiter-Glo, 24 hours); assay type: cell-based
GST-MCL-1 = GST-MCL-1 (Homo sapiens, UniProt Q07820); assay: TR-FRET MCL-1 binding assay (competition with probe F-Bak)
In short: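 Displacement of F-Bak from GST-MCL-1 is detected by time-resolved FRET with a Tb-labelled anti-GST antibody, with excitation 340/35 nm and emission 520/525 and 495/510 nm, after 2 hours at room temperature. Compounds were titrated in 11 three-fold steps starting at 25 μM final, in buffer alone or in 10% HS.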

[2] = tested on: NCI-H929 human multiple myeloma tumor cell line; assay: NCI-H929 cell viability assay (CellTiter-Glo, 24 hours); assay type: cell-based
[3] = Homo sapiens, AMO1, 24 h, read-out: AMO-1 Viability IC50 (μM, 10% FBS), 10% FBS, 24 hours of compound treatment
[4] = MCL-1 Binding Ki (nM, 10% HS), in the presence of 10% HS (human serum)
[5] = without HS, read-out: MCL-1 Binding Ki
[6] = Homo sapiens, NCI-H929, 24 h, read-out: H929 Viability IC50 (μM, 10% FBS), 10% FBS, 24 hours of compound treatment

Chain of GST-MCL-1 (Q07820 whole entry): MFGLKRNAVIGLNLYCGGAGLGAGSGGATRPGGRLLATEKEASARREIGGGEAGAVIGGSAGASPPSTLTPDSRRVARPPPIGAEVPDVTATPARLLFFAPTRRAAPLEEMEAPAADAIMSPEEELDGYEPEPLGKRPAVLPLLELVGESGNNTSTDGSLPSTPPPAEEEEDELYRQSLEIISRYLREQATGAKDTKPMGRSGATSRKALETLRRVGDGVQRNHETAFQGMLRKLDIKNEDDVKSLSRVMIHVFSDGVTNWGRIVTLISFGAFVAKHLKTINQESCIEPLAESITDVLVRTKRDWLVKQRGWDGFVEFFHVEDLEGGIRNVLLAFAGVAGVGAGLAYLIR

Structure (SMILES) | IC50 [1, 3] | Ki (GST-MCL-1; [4]) | Ki (GST-MCL-1; [5]) | IC50 [2, 6] | IC50 ([1]; read-out: AMO-1 Viability IC50 (μM, 10% FBS), 10% FBS, 24 hours of compound treatment) | IC50 ([2]; read-out: H929 Viability IC50 (μM, 10% FBS), 10% FBS, 24 hours of compound treatment) | IC50 ([1]; Homo sapiens, AMO1, read-out: AMO-1 Viability IC50 (μM), 10% FBS, 24 hours of compound treatment) | IC50 ([2]; Homo sapiens, NCI-H929, read-out: H929 Viability IC50 (μM), 10% FBS, 24 hours of compound treatment)
COCCOCCOCCOc1cccc(COc2ccc3cc2C[C@H](C(=O)O)Oc2ncnc4sc(-c5ccc(F)cc5)c(c24)-c2c(C)c(Cl)c(c(Cl)c2C)O[C@H](CN2CCN(C)CC2)CO3)c1 [Example 156, (7R,16R)-19,23-dichloro-1-(4-fluorophenyl)-10-[(3-{2-[2-(2-methoxyethoxy)ethoxy]ethoxy}phenyl)methoxy]-20,22-dimethyl-16-[(4-methylpiperazin-1-yl)methyl]-7,8,15,16-tetrahydro-18,21-etheno-13,9-(metheno)-6,14,17-trioxa-2-thia-3,5-diazacyclononadeca[1,2,3-cd]indene-7-carboxylic Acid] | 0.00453 µM | 23.6 nM | 1.88 nM | 0.0111 µM |  |  |  | 
COCCOCCOCCOCC1(C)CC=C(c2nccc(COc3ccc4cc3C[C@H](C(=O)O)Oc3ncnc5sc(-c6ccc(F)cc6)c(c35)-c3c(C)c(Cl)c(c(Cl)c3C)O[C@H](CN3CCN(C)CC3)CO4)n2)CC1 (single isomer, unassigned) [Example 119, (7R,16R)-19,23-dichloro-1-(4-fluorophenyl)-20,22-dimethyl-16-[(4-methylpiperazin-1-yl)methyl]-10-({2-[(4S*)-4-methyl-4-(2,5,8,11-tetraoxadodecan-1-yl)cyclohex-1-en-1-yl]pyrimidin-4-yl}methoxy)-7,8,15,16-tetrahydro-18,21-etheno-13,9-(metheno)-6,14,17-trioxa-2-thia-3,5-diazacyclononadeca[1,2,3-cd]indene-7-carboxylic Acid] |  | 0.16 nM | 0.004 nM |  | 0.000181 µM | 0.000333 µM |  | 
Cc1c(Cl)c2c(Cl)c(C)c1-c1c(-c3ccc(F)cc3)sc3ncnc(c13)O[C@@H](C(=O)O)Cc1cc(ccc1OCc1ccnc(-c3ccc(OCCN4C[C@H]5COC[C@H]5C4)cc3)n1)OC[C@@H](CN1CCN(C)CC1)O2 [Example 164, (7R,16R)-19,23-dichloro-1-(4-fluorophenyl)-20,22-dimethyl-16-[(4-methylpiperazin-1-yl)methyl]-10-{[2-(4-{2-[(3aR,6aS)-tetrahydro-1H-furo[3,4-c]pyrrol-5 (3H)-yl]ethoxy}phenyl)pyrimidin-4-yl]methoxy}-7,8,15,16-tetrahydro-18,21-etheno-13,9-(metheno)-6,14,17-trioxa-2-thia-3,5-diazacyclononadeca[1,2,3-cd]indene-7-carboxylic Acid] | 0.000416 µM | 0.453 nM | 0.061 nM | 0.00147 µM |  |  |  | 
COCCOCCOCCOCCOCCOCC1(c2nccc(COc3ccc4cc3C[C@H](C(=O)O)Oc3ncnc5sc(-c6ccc(F)cc6)c(c35)-c3c(C)c(Cl)c(c(Cl)c3C)O[C@H](CN3CCN(C)CC3)CO4)n2)CCCCC1 [Example 88, (7R,16R)-19,23-dichloro-1-(4-fluorophenyl)-10-({2-[1-(2,5,8,11,14,17-hexaoxaoctadecan-1-yl)cyclohexyl]pyrimidin-4-yl}methoxy)-20,22-dimethyl-16-[(4-methylpiperazin-1-yl)methyl]-7,8,15,16-tetrahydro-18,21-etheno-13,9-(metheno)-6,14,17-trioxa-2-thia-3,5-diazacyclononadeca[1,2,3-cd]indene-7-carboxylic Acid] | 0.00117 µM | 0.143 nM | 0.033 nM | 0.00206 µM |  |  |  | 
Cc1c(Cl)c2c(Cl)c(C)c1-c1c(-c3ccc(F)cc3)sc3ncnc(c13)O[C@@H](C(=O)O)Cc1cc(ccc1OCc1ccnc(-c3ccc(OC[C@H](O)CO)cc3)n1)OC[C@@H](CN1CCN(C)CC1)O2 [Example 22, (7R,16R)-19,23-dichloro-10-[(2-{4-[(2R)-2,3-dihydroxypropoxy]phenyl}pyrimidin-4-yl)methoxy]-1-(4-fluorophenyl)-20,22-dimethyl-16-[(4-methylpiperazin-1-yl)methyl]-7,8,15,16-tetrahydro-18,21-etheno-13,9-(metheno)-6,14,17-trioxa-2-thia-3,5-diazacyclononadeca[1,2,3-cd]indene-7-carboxylic Acid] | 0.00133 µM | 0.214 nM | 0.015 nM | 0.0018 µM |  |  |  | 
COCCOCCOCCO[C@H]1CC[C@@H](c2nccc(COc3ccc4cc3C[C@H](C(=O)O)Oc3ncnc5sc(-c6ccc(F)cc6)c(c35)-c3c(C)c(Cl)c(c(Cl)c3C)O[C@H](CN3CCN(C)CC3)CO4)n2)CC1 [Example 70, (7R,16R)-19,23-dichloro-1-(4-fluorophenyl)-10-({2-[(1s,4s)-4-{2-[2-(2-methoxyethoxy)ethoxy]ethoxy}cyclohexyl]pyrimidin-4-yl}methoxy)-20,22-dimethyl-16-[(4-methylpiperazin-1-yl)methyl]-7,8,15,16-tetrahydro-18,21-etheno-13,9-(metheno)-6,14,17-trioxa-2-thia-3,5-diazacyclononadeca[1,2,3-cd]indene-7-carboxylic Acid] | 0.000263 µM | 0.083 nM | 0.012 nM | 0.000489 µM |  |  |  | 
Cc1c(Cl)c2c(Cl)c(C)c1-c1c(-c3ccc(F)cc3)sc3ncnc(c13)O[C@@H](C(=O)O)Cc1cc(ccc1OCc1ccnc(-c3ccc(OC(=O)N4CCOCC4)cc3)n1)OC[C@@H](CN1CCN(C)CC1)O2 [Example 151, (7R,16R)-19,23-dichloro-1-(4-fluorophenyl)-20,22-dimethyl-16-[(4-methylpiperazin-1-yl)methyl]-10-[(2-{4-[(morpholine-4-carbonyl)oxy]phenyl}pyrimidin-4-yl)methoxy]-7,8,15,16-tetrahydro-18,21-etheno-9,13-(metheno)-6,14,17-trioxa-2-thia-3,5-diazacyclononadeca[1,2,3-cd]indene-7-carboxylic Acid] |  | 0.325 nM | 0.01 nM |  |  |  | 0.000303 µM | 0.000735 µM
COCCOCCOCCOCCN(CCOCCOCCOCCOC)c1nccc(COc2ccc3cc2C[C@H](C(=O)O)Oc2ncnc4sc(-c5ccc(F)cc5)c(c24)-c2c(C)c(Cl)c(c(Cl)c2C)O[C@H](CN2CCN(C)CC2)CO3)n1 [Example 109, (7R,16R)-10-({2-[bis(2,5,8,11-tetraoxatridecan-13-yl)amino]pyrimidin-4-yl}methoxy)-19,23-dichloro-1-(4-fluorophenyl)-20,22-dimethyl-16-[(4-methylpiperazin-1-yl)methyl]-7,8,15,16-tetrahydro-18,21-etheno-13,9-(metheno)-6,14,17-trioxa-2-thia-3,5-diazacyclononadeca[1,2,3-cd]indene-7-carboxylic Acid] | 0.0166 µM | 2.43 nM | 0.104 nM | 0.0128 µM |  |  |  | 
Cc1c(Cl)c2c(Cl)c(C)c1-c1c(-c3ccc(F)cc3)sc3ncnc(c13)O[C@@H](C(=O)O)Cc1cc(ccc1OCc1ccnc(-c3ccc(O[C@H]4CO[C@H]5[C@@H]4OC[C@H]5O)cc3)n1)OC[C@@H](CN1CCN(C)CC1)O2 [Example 161, (7R,16R)-19,23-dichloro-1-(4-fluorophenyl)-10-{[2-(4-{[(3S,3aR,6R,6aR)-6-hydroxyhexahydrofuro[3,2-b]furan-3-yl]oxy}phenyl)pyrimidin-4-yl]methoxy}-20,22-dimethyl-16-[(4-methylpiperazin-1-yl)methyl]-7,8,15,16-tetrahydro-18,21-etheno-13,9-(metheno)-6,14,17-trioxa-2-thia-3,5-diazacyclononadeca[1,2,3-cd]indene-7-carboxylic Acid] | 0.000262 µM | 0.141 nM | 0.002 nM | 0.000502 µM |  |  |  | 
COCCOCCOCCOCCOCCOCC1(F)CC=C(c2nccc(COc3ccc4cc3C[C@H](C(=O)O)Oc3ncnc5sc(-c6ccc(F)cc6)c(c35)-c3c(C)c(Cl)c(c(Cl)c3C)O[C@H](CN3CCN(C)CC3)CO4)n2)CC1 (single isomer, unassigned) [Example 97, (7R,16R)-19,23-dichloro-10-({2-[(4S*)-4-fluoro-4-(2,5,8,11,14,17-hexaoxaoctadecan-1-yl)cyclohex-1-en-1-yl]pyrimidin-4-yl}methoxy)-1-(4-fluorophenyl)-20,22-dimethyl-16-[(4-methylpiperazin-1-yl)methyl]-7,8,15,16-tetrahydro-18,21-etheno-13,9-(metheno)-6,14,17-trioxa-2-thia-3,5-diazacyclononadeca[1,2,3-cd]indene-7-carboxylic Acid] | 0.0006 µM | 0.137 nM | 0.016 nM | 0.000482 µM |  |  |  | 
COCCOCCOCCOCCOCCO[C@H]1CC[C@@H](c2nccc(COc3ccc4cc3C[C@H](C(=O)O)Oc3ncnc5sc(-c6ccc(F)cc6)c(c35)-c3c(C)c(Cl)c(c(Cl)c3C)O[C@H](CN3CCN(C)CC3)CO4)n2)CC1 [Example 82, (7R,16R)-19,23-dichloro-1-(4-fluorophenyl)-20,22-dimethyl-16-[(4-methylpiperazin-1-yl)methyl]-10-[(2-{(1s,4s)-4-[(2,5,8,11,14-pentaoxahexadecan-16-yl)oxy]cyclohexyl}pyrimidin-4-yl)methoxy]-7,8,15,16-tetrahydro-18,21-etheno-13,9-(metheno)-6,14,17-trioxa-2-thia-3,5-diazacyclononadeca[1,2,3-cd]indene-7-carboxylic Acid] | 0.000563 µM | 0.135 nM | 0.014 nM | 0.00109 µM |  |  |  | 
